{"source": "patent US5618829A", "about": "“Tyrosine kinase inhibitors and benzoylacrylamide derivatives” (Mitsubishi Chemical Corporation, priority 1993, dated 1997)", "key": {"EGF receptor": {"target": "T1, EGF receptor (Homo sapiens, UniProt P00533)", "T1 construct": "The cell membrane fraction, a partially purified EGF receptor, was used as an enzyme source; endogenous in cells; host or cells: A431 (human epidermoid carcinoma), cell membrane fraction", "T1 sequence (P00533 25-1210)": "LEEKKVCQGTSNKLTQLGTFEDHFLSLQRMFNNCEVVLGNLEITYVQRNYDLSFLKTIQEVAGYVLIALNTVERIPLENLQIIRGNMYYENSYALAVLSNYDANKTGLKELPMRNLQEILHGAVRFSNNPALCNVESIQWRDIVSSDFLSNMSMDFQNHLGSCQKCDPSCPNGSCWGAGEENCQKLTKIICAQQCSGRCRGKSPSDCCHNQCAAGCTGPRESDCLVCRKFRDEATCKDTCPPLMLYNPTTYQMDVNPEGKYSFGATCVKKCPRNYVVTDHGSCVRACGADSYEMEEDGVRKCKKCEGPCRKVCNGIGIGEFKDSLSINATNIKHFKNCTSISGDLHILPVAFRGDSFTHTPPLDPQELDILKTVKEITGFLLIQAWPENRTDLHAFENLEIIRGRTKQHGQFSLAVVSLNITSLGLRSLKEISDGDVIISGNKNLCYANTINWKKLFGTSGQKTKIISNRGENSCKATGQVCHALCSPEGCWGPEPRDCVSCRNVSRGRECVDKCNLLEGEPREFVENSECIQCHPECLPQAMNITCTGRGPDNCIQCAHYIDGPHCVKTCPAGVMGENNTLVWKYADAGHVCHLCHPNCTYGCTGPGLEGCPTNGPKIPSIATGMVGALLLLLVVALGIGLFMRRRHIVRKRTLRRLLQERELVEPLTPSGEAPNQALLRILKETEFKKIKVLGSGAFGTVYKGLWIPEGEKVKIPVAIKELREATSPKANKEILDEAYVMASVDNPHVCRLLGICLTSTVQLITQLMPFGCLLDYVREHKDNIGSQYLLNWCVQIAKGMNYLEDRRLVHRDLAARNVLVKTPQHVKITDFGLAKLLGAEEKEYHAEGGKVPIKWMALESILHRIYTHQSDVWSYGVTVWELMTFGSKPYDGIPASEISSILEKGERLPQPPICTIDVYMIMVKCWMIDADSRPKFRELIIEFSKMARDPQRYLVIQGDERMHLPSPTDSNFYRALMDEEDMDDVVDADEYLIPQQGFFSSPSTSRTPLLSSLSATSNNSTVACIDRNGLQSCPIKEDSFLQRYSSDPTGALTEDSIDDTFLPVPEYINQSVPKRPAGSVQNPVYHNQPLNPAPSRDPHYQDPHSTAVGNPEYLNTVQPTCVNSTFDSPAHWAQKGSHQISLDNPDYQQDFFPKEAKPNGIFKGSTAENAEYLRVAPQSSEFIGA", "experiment": "Tyrosine kinase inhibitory activity (partially purified EGF receptor from A431 cell membrane fraction, RR-SRC peptide substrate)", "format": "biochemical", "conditions": "partially purified EGF receptor from A431 cells, 100 ng EGF, 10 μM γ-32P-ATP, 30 minutes under ice-cooling", "description": "(§1) The compounds of the invention were evaluated their tyrosine kinase inhibitory activities with partially purified EGF (epidermal cell growth factor) receptor preparation and cell growth inhibitory activity with human cancer cells.\nTyrosine Kinase Inhibitory Activity\nTyrosine kinase inhibitory activities of the compounds of the invention were determined as the inhibitory activities of the compounds added into the tyrosine kinase activity assay system.\nThe method employed is detailed below.\nA431 cells were cultured in Dulbecco's modified Eagles medium (DMEM) containing 10% fetal calf serum (FCS) at 37° C. under 5% CO2 atmosphere. The cultured cells were homogenated in a solution containing 10 mM N-2-hydroxyethylpiperazino-N'-2-ethane sulfonate buffer (pH 7.4), 0.25M sucrose, and 0.1 mM EDTA, and centrifuged at 3000 xg for 5 minutes. The supernatant was then centrifuged at 10000 xg for 30 minutes to obtain A431 cell membrane fraction. The cell membrane fraction, a partially purified EGF receptor, was used as an enzyme source. A test compound dissolved in dimethylsulfoxide (DMSO) was added to a reaction mixture containing 15 mM Hepes buffer (pH 7.7), 2 mM MnCl2, 10 μM ZnSO4, 50 μM Na3 VO4 and the partially purified EGF receptor preparation (10-15 μg). […] The mixture was allowed to react under […] for 30 minutes, and the reaction was stopped by addition of 10 mg/ml bovine serum albumin and 20% trichloroacetic acid. The reaction mixture was left to stand under ice-cooling for 30 minutes. The mixture was centrifuged at 5000 xg for two minutes, and an aliquot of the supernatant was adsorbed on P81 phosphocellulose filter. The filter was dipped in 30% aqueous acetic acid for 15 minutes for fixation and then washed with 15% acetic acid. The washing was repeated four times. The radioactivity of ^32 P retained on the phosphocellulose filter was counted with liquid scintillation counter.\nTyrosine kinase inhibitory activity (TKIA) was determined according to the following equation:\nTKIA(%)={1-(B-C)/(A-C)}×100\nThe sympols \"A\", \"B\" and \"C\" represent the radioactivities determined in tyrosine kinase assays with test compounds, without a test compound, and without both a test compound and EGF, respectively."}, "KB cell": {"system": "KB cell", "experiment": "Cancer cell growth inhibitory activity (KB cells, MTT)", "format": "cell-based", "conditions": "Homo sapiens, 72 h, read-out: Inhibitory activity (IC50, μM) Cancer cell growth", "description": "as §1\nCancer Cell Growth Inhibitory Activity\nAccordingly, the KB cell was used to evaluate the effect of test compounds on the growth of cultured cancer cells.\nKB cells were plated on a 96-well dish (2.5×10^3 cell/well) and cultured for 24 hours at 37° C. under 5% CO2 atmosphere in DMEM:F12 (1:1) medium containing 10% FCS, 50 μg/ml penicillin, and 50 μg/ml streptomycin. To the culture medium was added a test compound dissolved in DMSO (DMSO final concentration<0.1%), and the cells were cultured for three days under the same conditions. The test compound was exchanged every 24 hours together with the culture medium.\nThe amount of living cells were measured by calorimetric determination at wave lengths of 550 nm and 650 nm after developing colour by MTT reagent, in accordance with the method of Michael C.\nCancer cell growth inhibitory activity (CCGIA) was determined according to the following equation.\nSimbols \"a\" and \"b\" represent the colorimetric values determined in the cancer cell growth assay with and without the test compounds, respectively."}, "[1]": {"conditions": "KB cells, three days, 37° C., MTT"}}, "note": "Where two headings read alike, the source gives them in different places."}
{"smiles": "COc1cc(C(=O)/C=C/C(=O)Nc2ccccc2)ccc1OC(F)F", "note": "[Compound 64]", "values": [{"measurement": "IC50", "setting": "EGF receptor", "value": 1.5, "unit": "µM"}, {"measurement": "IC50", "setting": "KB cell; KB", "value": 1.1, "unit": "µM"}]}
{"smiles": "COc1ccc(C(=O)/C=C/C(=O)NCc2ccccc2)cc1OC", "note": "[Compound 19]", "values": [{"measurement": "IC50", "setting": "EGF receptor", "value": 0.79, "unit": "µM"}, {"measurement": "IC50", "setting": "KB cell; KB", "value": 0.97, "unit": "µM"}]}
{"smiles": "O=C(/C=C/C(=O)c1ccc(O)c(O)c1)Nc1cccc(Cl)c1", "note": "[Compound 75]", "values": [{"measurement": "IC50", "setting": "EGF receptor", "value": 4.3, "unit": "µM"}, {"measurement": "IC50", "setting": "KB cell; KB", "value": 1.25, "unit": "µM"}]}
{"smiles": "O=C(/C=C/C(=O)c1ccc(O)c(O)c1)Nc1ccccc1", "note": "[Compound 60]", "values": [{"measurement": "IC50", "setting": "EGF receptor", "value": 1, "unit": "µM"}, {"measurement": "IC50", "setting": "KB cell; KB", "value": 1.85, "unit": "µM"}]}
{"smiles": "COc1ccc(C(=O)/C=C/C(=O)Nc2ccccc2)cc1", "note": "[Compound 58]", "values": [{"measurement": "IC50", "setting": "EGF receptor", "value": 2.2, "unit": "µM"}, {"measurement": "IC50", "setting": "KB cell; KB", "value": 0.34, "unit": "µM"}]}
{"smiles": "COc1ccc(C(=O)/C=C/C(=O)Nc2cccc(C)c2)cc1OC", "note": "[Compound 83]", "values": [{"measurement": "IC50", "setting": "EGF receptor", "value": 0.81, "unit": "µM"}, {"measurement": "IC50", "setting": "KB cell; KB", "value": 0.95, "unit": "µM"}]}
{"smiles": "COc1ccc(C(=O)/C=C/C(=O)Nc2cccc(Cl)c2)cc1OC", "note": "[Compound 74]", "values": [{"measurement": "IC50", "setting": "EGF receptor", "value": 0.76, "unit": "µM"}, {"measurement": "IC50", "setting": "KB cell; [1]", "value": 0.7, "unit": "µM"}]}
{"smiles": "COc1ccc(C(=O)/C=C/C(=O)Nc2ccccc2Cl)cc1OC", "note": "[Compound 71]", "values": [{"measurement": "IC50", "setting": "EGF receptor", "value": 1.2, "unit": "µM"}, {"measurement": "IC50", "setting": "KB cell; KB", "value": 1.2, "unit": "µM"}]}
{"smiles": "COc1ccc(C(=O)/C=C/C(=O)NC2CCCCC2)cc1OC", "note": "[Compound 45]", "values": [{"measurement": "IC50", "setting": "EGF receptor", "value": 1, "unit": "µM"}, {"measurement": "IC50", "setting": "KB cell; KB", "value": 0.22, "unit": "µM"}]}
{"smiles": "COc1cc(C(=O)/C=C/C(=O)Nc2ccccc2)ccc1O", "note": "[Compound 61]", "values": [{"measurement": "IC50", "setting": "EGF receptor", "value": 1.5, "unit": "µM"}, {"measurement": "IC50", "setting": "KB cell; [1]", "value": 2, "unit": "µM"}]}
{"smiles": "COc1ccc(C(=O)/C=C/C(N)=O)cc1OC", "note": "[Compound 2]", "values": [{"measurement": "IC50", "setting": "EGF receptor", "value": 0.32, "unit": "µM"}, {"measurement": "IC50", "setting": "KB cell; KB", "value": 0.92, "unit": "µM"}]}
{"smiles": "COc1ccc(C(=O)/C=C/C(=O)Nc2ccccc2)cc1OC", "note": "[Compound 59]", "values": [{"measurement": "IC50", "setting": "EGF receptor", "value": 0.54, "unit": "µM"}, {"measurement": "IC50", "setting": "KB cell; KB", "value": 0.45, "unit": "µM"}]}
{"smiles": "COc1cc(C(=O)/C=C/C(=O)Nc2ccccc2)ccc1OCc1ccccc1", "note": "[Compound 67]", "values": [{"measurement": "IC50", "setting": "EGF receptor", "value": 13, "unit": "µM"}, {"measurement": "IC50", "setting": "KB cell; KB", "value": 0.58, "unit": "µM"}]}
{"smiles": "COc1ccc(C(=O)/C=C/C(=O)NC(=O)c2ccccc2)cc1OC", "note": "[Compound 110]", "values": [{"measurement": "IC50", "setting": "EGF receptor", "value": 0.91, "unit": "µM"}, {"measurement": "IC50", "setting": "KB cell; KB", "value": 11.5, "unit": "µM"}]}
